Patent US4677100A, “Cephalosporin derivatives” (Banyu Pharmaceutical Co., Ltd., priority 1984, dated 1987)
Values after ≈ are worked out from the molar mass of the structure shown.

Key:
A. calcoaceticus No. 14 = experiment: MIC, agar plate dilution method; format: cell-based; conditions: Acinetobacter calcoaceticus; for MIC: A. calcoaceticus No. 14, 10^6 CFU/ml, Sensitivity Disk Agar, read-out: Minimum Inhibitory Concentration
Experimental: (§1) The minimum inhibitory concentrations (MIC: μg/ml) of the compounds of the present invention against various microorganisms were measured by an agar plate dilution method (inoculum size: 10^6 CFU/ml) by using Sensitivity Disk Agar (Nissui) in comparison with Cefotaxime and Ceftazidime as comparative compounds.

C. freundii No. 7 = experiment: MIC, agar plate dilution method; format: cell-based; conditions: Citrobacter freundii; C. freundii No. 7; 10^6 CFU/ml; Sensitivity Disk Agar; read-out: Minimum Inhibitory Concentration
Experimental: as §1

E. cloaceae Nek 39 = experiment: MIC, agar plate dilution method; format: cell-based; conditions: E. cloaceae Nek 39; 10^6 CFU/ml; Sensitivity Disk Agar; read-out: Minimum Inhibitory Concentration
Experimental: as §1

E. coli C/Rms149 = experiment: MIC, agar plate dilution method; format: cell-based; conditions: Escherichia coli, read-out: Minimum Inhibitory Concentration
Experimental: as §1

E. coli CSH2 = experiment: MIC, agar plate dilution method; format: cell-based; conditions: Escherichia coli, 10^6 CFU/ml, Sensitivity Disk Agar, read-out: Minimum Inhibitory Concentration
Experimental: as §1

E. coli CSH = experiment: MIC, agar plate dilution method; format: cell-based; conditions: Escherichia coli, read-out: Minimum Inhibitory Concentration
Experimental: as §1

E. coli ML1410/Rte16 = experiment: MIC, agar plate dilution method; format: cell-based; conditions: Escherichia coli, ML1410/RTE16, read-out: Minimum Inhibitory Concentration
Experimental: as §1

E. coli NIHJJC-2 = experiment: MIC, agar plate dilution method; format: cell-based; conditions: Escherichia coli, NIHJJC2; E. coli NIHJJC-2; 10^6 CFU/ml; Sensitivity Disk Agar; read-out: Minimum Inhibitory Concentration
Experimental: as §1

E. coli W3630/Rms212 = experiment: MIC, agar plate dilution method; format: cell-based; conditions: Escherichia coli, W3630/RMS212, read-out: Minimum Inhibitory Concentration
Experimental: as §1

E. coli W3630/Rms213 = experiment: MIC, agar plate dilution method; format: cell-based; conditions: Escherichia coli, W3630/RMS213, read-out: Minimum Inhibitory Concentration
Experimental: as §1

K. pneumoniae No. 42 = experiment: MIC, agar plate dilution method; format: cell-based; conditions: Klebsiella pneumoniae; K. pneumoniae No. 42; 10^6 CFU/ml; Sensitivity Disk Agar; read-out: Minimum Inhibitory Concentration
Experimental: as §1

P. mirabilis JY10 = experiment: MIC, agar plate dilution method; format: cell-based; conditions: Proteus mirabilis; P. mirabilis JY10; 10^6 CFU/ml; Sensitivity Disk Agar; read-out: Minimum Inhibitory Concentration
Experimental: as §1

P. vulgaris No. 33 = experiment: MIC, agar plate dilution method; format: cell-based; conditions: Proteus vulgaris; P. vulgaris No. 33; 10^6 CFU/ml; Sensitivity Disk Agar; read-out: Minimum Inhibitory Concentration
Experimental: as §1

P. vulgaris OB1043 = experiment: MIC, agar plate dilution method; format: cell-based; conditions: Proteus vulgaris; P. vulgaris OB1043; 10^6 CFU/ml; Sensitivity Disk Agar; read-out: Minimum Inhibitory Concentration
Experimental: as §1

S. aureus JS-1 = experiment: MIC, agar plate dilution method; format: cell-based; conditions: Staphylococcus aureus, JS1; S. aureus JS-1; 10^6 CFU/ml; Sensitivity Disk Agar; read-out: Minimum Inhibitory Concentration
Experimental: as §1

S. aureus NIHJJC-1 = experiment: MIC, agar plate dilution method; format: cell-based; conditions: Staphylococcus aureus, NIHJJC1; S. aureus NIHJJC-1; 10^6 CFU/ml; Sensitivity Disk Agar; read-out: Minimum Inhibitory Concentration
Experimental: as §1

S. marcescens No. 16-2 = experiment: MIC, agar plate dilution method; format: cell-based; conditions: Serratia marcescens, NO.162; S. marcescens No. 16-2; 10^6 CFU/ml; Sensitivity Disk Agar; read-out: Minimum Inhibitory Concentration
Experimental: as §1

P. aeruginosa AK109 = experiment: MIC, agar plate dilution method; format: cell-based, Pseudomonas aeruginosa; conditions: for MIC: Pseudomonas aeruginosa, P. aeruginosa AK109, 10^6 CFU/ml, Sensitivity Disk Agar, read-out: Minimum Inhibitory Concentration; for antibacterial activity relative to the compound of Reference Example: Pseudomonas aeruginosa AK109
Experimental: as §1

P. aeruginosa AKR17 = experiment: MIC, agar plate dilution method; format: cell-based, Pseudomonas aeruginosa; conditions: for MIC: Pseudomonas aeruginosa, P. aeruginosa AKR17, 10^6 CFU/ml, Sensitivity Disk Agar, read-out: Minimum Inhibitory Concentration; for antibacterial activity relative to the compound of Reference Example: Pseudomonas aeruginosa AKR-17, resistant to all cephalosporins including Ceftazidime
Experimental: as §1

P. cepacia 23 = experiment: MIC, agar plate dilution method; format: cell-based, Pseudomonas cepacia; conditions: for MIC: Burkholderia cepacia, P. cepacia 23, 10^6 CFU/ml, Sensitivity Disk Agar, read-out: Minimum Inhibitory Concentration; for antibacterial activity relative to the compound of Reference Example: Pseudomonas cepacia 23
Experimental: as §1

P. maltophilia IID 1275 = experiment: MIC, agar plate dilution method; format: cell-based, Pseudomonas maltophilia; conditions: for MIC: Stenotrophomonas maltophilia, IID1275, P. maltophilia IID 1275, 10^6 CFU/ml, Sensitivity Disk Agar, read-out: Minimum Inhibitory Concentration
Experimental: as §1

[1] = system: Gram-positive bacteria and Gram-negative bacteria; experiment: antibacterial activity, general statement; format: cell-based; conditions: sensitive and resistant bacteria
Experimental: as §1

Row | Compound | MIC (A. calcoaceticus No. 14) | MIC (C. freundii No. 7) | MIC (E. cloaceae Nek 39) | MIC (E. coli C/Rms149) | MIC (E. coli CSH2) | MIC (E. coli CSH) | MIC (E. coli ML1410/Rte16) | MIC (E. coli NIHJJC-2) | MIC (E. coli W3630/Rms212) | MIC (E. coli W3630/Rms213) | MIC (K. pneumoniae No. 42) | MIC (P. mirabilis JY10) | MIC (P. vulgaris No. 33) | MIC (P. vulgaris OB1043) | MIC (S. aureus JS-1) | MIC (S. aureus NIHJJC-1) | MIC (S. marcescens No. 16-2) | MIC (P. aeruginosa AK109) | MIC (P. aeruginosa AKR17) | MIC (P. cepacia 23) | further results
1 | CO/N=C(\C(=O)NC1C(=O)N2C(C(=O)[O-])=C(C[N+]3(C)Cc4ccc(OC(C)=O)cc4C3)CSC12)c1csc(N)n1 (stereo not shown) [Ex. 1-F] | 25 µg/mL (≈ 42.6 µM) | 1.56 µg/mL (≈ 2.66 µM) | 0.78 µg/mL (≈ 1.33 µM) | 0.1 µg/mL (≈ 0.17 µM) | ≤ 0.05 µg/mL | 0.78 µg/mL (≈ 1.33 µM) | 0.1 µg/mL (≈ 0.17 µM) | ≤ 0.05 µg/mL | 0.2 µg/mL (≈ 0.341 µM) | 0.78 µg/mL (≈ 1.33 µM) | 0.2 µg/mL (≈ 0.341 µM) | 0.39 µg/mL (≈ 0.665 µM) | 0.1 µg/mL (≈ 0.17 µM) | 0.78 µg/mL (≈ 1.33 µM) | 6.25 µg/mL (≈ 10.7 µM) | 0.39 µg/mL (≈ 0.665 µM) | 12.5 µg/mL (≈ 21.3 µM) | 3.12 µg/mL (≈ 5.32 µM) | > 25 µg/mL | 6.25 µg/mL (≈ 10.7 µM) | MIC (P. maltophilia IID 1275): > 25 µg/mL
2 | CO/N=C(\C(=O)NC1C(=O)N2C(C(=O)[O-])=C(C[N+]3(C)Cc4ccc(O)cc4C3)CSC12)c1csc(N)n1 (stereo not shown) [Ex. 2-D, 7-[(Z)-2-(2-aminothiazol-4-yl)-2-methoxyiminoacetamido]-3-(5-hydroxy-2-methyl-2-isoindolinium)methyl-3-cephem-4-carboxylate] | 25 µg/mL (≈ 45.9 µM) | 1.56 µg/mL (≈ 2.86 µM) | 0.78 µg/mL (≈ 1.43 µM) | 0.1 µg/mL (≈ 0.184 µM) | ≤ 0.05 µg/mL | 0.39 µg/mL (≈ 0.716 µM) | 0.1 µg/mL (≈ 0.184 µM) | ≤ 0.05 µg/mL | 0.2 µg/mL (≈ 0.367 µM) | 0.78 µg/mL (≈ 1.43 µM) | 0.2 µg/mL (≈ 0.367 µM) | 0.39 µg/mL (≈ 0.716 µM) | 0.1 µg/mL (≈ 0.184 µM) | 0.39 µg/mL (≈ 0.716 µM) | 6.25 µg/mL (≈ 11.5 µM) | 0.39 µg/mL (≈ 0.716 µM) | 6.25 µg/mL (≈ 11.5 µM) | 3.12 µg/mL (≈ 5.73 µM) | > 25 µg/mL | 6.25 µg/mL (≈ 11.5 µM) | MIC (P. maltophilia IID 1275): > 25 µg/mL
3 | CO/N=C(\C(=O)NC1C(=O)N2C(C(=O)[O-])=C(C[N+]3(C)Cc4cc(OC(C)=O)c(OC(C)=O)cc4C3)CSC12)c1csc(N)n1 (stereo not shown) [Ex. 3-D] | 0.2 µg/mL (≈ 0.31 µM) | 6.25 µg/mL (≈ 9.69 µM) | ≤ 0.05 µg/mL | 0.1 µg/mL (≈ 0.155 µM) | 0.2 µg/mL (≈ 0.31 µM) | 1.56 µg/mL (≈ 2.42 µM) | 0.1 µg/mL (≈ 0.155 µM) | ≤ 0.05 µg/mL | ≤ 0.05 µg/mL | 0.78 µg/mL (≈ 1.21 µM) | 0.2 µg/mL (≈ 0.31 µM) | 0.39 µg/mL (≈ 0.605 µM) | 0.2 µg/mL (≈ 0.31 µM) | 3.12 µg/mL (≈ 4.84 µM) | 25 µg/mL (≈ 38.8 µM) | 6.25 µg/mL (≈ 9.69 µM) | 6.25 µg/mL (≈ 9.69 µM) | 0.2 µg/mL (≈ 0.31 µM) | 0.78 µg/mL (≈ 1.21 µM) | 0.39 µg/mL (≈ 0.605 µM) | antibacterial activity relative to the compound of Reference Example (A. calcoaceticus No. 14): at least 32 times; antibacterial activity relative to the compound of Reference Example (P. aeruginosa AK109): at least 16 times; antibacterial activity relative to the compound of Reference Example (P. aeruginosa AKR17): at least 32 times; antibacterial activity relative to the compound of Reference Example (P. cepacia 23): at least 32 times; MIC (P. maltophilia IID 1275): 25 µg/mL (≈ 38.8 µM); antibacterial activity (in words) [1]: particularly strong antibacterial activities
4 | C[N+]1(CC2=C(C(=O)[O-])N3C(=O)C(NC(=O)C(=NOC4(C(=O)O)CCC4)c4csc(N)n4)C3SC2)Cc2cc(O)c(O)cc2C1 (stereo not shown) [Ex. 11-F, 7-[(Z)-2-(2-aminothiazol-4-yl)-2-(1-carboxy-1-cyclobutoxyimino)acetamido]-3-(5,6-dihydroxy-2-methyl-2-isoindolinium)methyl-3-cephem-4-carboxylate] | 0.1 µg/mL (≈ 0.155 µM) | 0.78 µg/mL (≈ 1.21 µM) | ≤ 0.05 µg/mL | ≤ 0.05 µg/mL | ≤ 0.05 µg/mL | ≤ 0.05 µg/mL | ≤ 0.05 µg/mL | ≤ 0.05 µg/mL | ≤ 0.05 µg/mL | ≤ 0.05 µg/mL | ≤ 0.05 µg/mL | ≤ 0.05 µg/mL | ≤ 0.05 µg/mL | ≤ 0.05 µg/mL | > 25 µg/mL | 25 µg/mL (≈ 38.8 µM) | 0.2 µg/mL (≈ 0.31 µM) | ≤ 0.05 µg/mL | 0.1 µg/mL (≈ 0.155 µM) | ≤ 0.05 µg/mL | antibacterial activity relative to the compound of Reference Example (A. calcoaceticus No. 14): at least 32 times; antibacterial activity relative to the compound of Reference Example (P. aeruginosa AK109): at least 16 times; antibacterial activity relative to the compound of Reference Example (P. aeruginosa AKR17): at least 32 times; antibacterial activity relative to the compound of Reference Example (P. cepacia 23): at least 32 times; antibacterial activity relative to the compound of Reference Example (P. maltophilia IID 1275; Pseudomonas maltophilia resistant to all cephalosporins): at least twice as strong; MIC (P. maltophilia IID 1275): 1.56 µg/mL (≈ 2.42 µM)
5 | CO/N=C(\C(=O)NC1C(=O)N2C(C(=O)[O-])=C(C[N+]3(C)Cc4ccccc4C3)CSC12)c1csc(N)n1 (stereo not shown) [Reference Ex., 7-[(Z)-2-(2-aminothiazol-4-yl)-2-methoxyiminoacetamido]-3-(2-methyl-2-isoindolinium)methyl-3-cephem-4-carboxylate, reference compound] | 25 µg/mL (≈ 47.3 µM) | 1.56 µg/mL (≈ 2.95 µM) | 0.78 µg/mL (≈ 1.48 µM) | 0.1 µg/mL (≈ 0.189 µM) | ≤ 0.05 µg/mL | 0.39 µg/mL (≈ 0.738 µM) | 0.05 µg/mL (≈ 0.0946 µM) | ≤ 0.05 µg/mL | 0.2 µg/mL (≈ 0.378 µM) | 0.78 µg/mL (≈ 1.48 µM) | 0.2 µg/mL (≈ 0.378 µM) | 0.39 µg/mL (≈ 0.738 µM) | 0.2 µg/mL (≈ 0.378 µM) | 0.78 µg/mL (≈ 1.48 µM) | 3.12 µg/mL (≈ 5.9 µM) | 0.39 µg/mL (≈ 0.738 µM) | 12.5 µg/mL (≈ 23.6 µM) | 3.12 µg/mL (≈ 5.9 µM) | > 25 µg/mL | 12.5 µg/mL (≈ 23.6 µM) | MIC (P. maltophilia IID 1275): > 25 µg/mL
